The source of these data is patent EP4745138A1, “THIO-GLUTARIMIDO ISOINDOLINONE DERIVATIVE, BIFUNCTIONAL PROTEIN DEGRADER CONTAINING SAME, AND USES THEREOF” (Gluetacs Therapeutics (Shanghai) Co., Ltd., priority 2023, dated 2025).

One assay concerns EGFR. Briefly: Western blot, target protein degradation in H1975 Cell. The conditions noted are these: substrate protein remaining %, treated at 500 nM and 50 nM, 24 hours. Type of assay: cell-based, Human. The method, then:
(§1) Conventional Western blot assay was performed to evaluate the effects of the compounds of the present disclosure on the expression of target proteins in cells.
(§2) (1) Cell Seeding and Protein Harvesting: The selected cells were processed according to the cell seeding procedure and protein harvesting procedure in Table II-2. Table II-2 Cell Seeding and Protein Harvesting Procedures
(§3) (2) To the collected supernatant, 5X SDS sample loading buffer was added, followed by denaturation at 95°C for 5 minutes. The denatured samples were then separated by SDS-PAGE electrophoresis on a polyacrylamide gel. Proteins were transferred to a nitrocellulose membrane (0.45 µm NC membrane), blocked with blocking buffer at room temperature for 1 hour, and subjected to antibody incubation and development procedures according to the antibody manufacturer's instructions (Cell Signaling Technology).
(§4) Half-Maximal Degradation Concentration value (the drug concentration required for degrading proteins by 50%, abbreviated as DC50) reads method: comparing the grayscale values of Western blot bands from drug-treated samples with those from blank DMSO-treated controls, and identifying the drug concentration range at which the grayscale value is half that of the DMSO-treated control bands.
(§5) DC50 values can be calculated using ImageJ software to measure grayscale values of Western blot bands from drug-treated samples. The concentration-response curve is fitted to estimate the drug concentration corresponding to half the grayscale value.
(§6) Target protein remaining (%) refers to the percentage of target protein remaining in cells after treatment with protein degrader compounds.
(§7) Calculation method for target protein remaining (%): Use ImageJ software to measure grayscale values of Western blot bands from drug (protein degrader)-treated samples. The grayscale value of drug-treated bands is divided by that of internal control protein bands, and the resulting quotient is normalized to obtain the relative percentage of remaining target protein after protein degrader treatment. Target protein degradation rate(%) = 1−target protein remaining(%). [formula]
A general note: In western blotting, separated proteins are transferred to a membrane and probed.

Assay [1] has as its target T1, human Cereblon WT GST-tagged protein (Homo sapiens, UniProt Q96SW2).
T1 construct: purchased CISBIO 64BDCRBNPEH
In words: CRBN-binding affinity, HTRF (CEREBLON BINDING kit). The conditions noted are these: for inhibition at 0.5 µM: read-out: Inhibition Rate at 0.5 µM (%); for inhibition at 2 µM: read-out: Inhibition Rate at 2 µM (%). The essentials:
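HTRF competition against a thalidomide-red probe using GST-tagged Cereblon and Eu-labelled anti-GST antibody. Test concentrations (final): 2 µM and 0.5 µM in diluent #9 (1X); blank controls lack compound and protein, containing PROTAC binding buffer.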
On the technique in general: Time-resolved FRET reads energy transfer from a long-lived donor to a nearby acceptor.

The subject of the next assay is MV-4-11. In words: Tumor cell proliferation inhibition (CellTiter-Meiluncell Luminescent Cell Viability Assay). Type of assay: cell-based. The conditions noted are these: Homo sapiens, 96 hours; for inhibition at 0.01 µM: MV4-11, 10 nM, read-out: Inhibition Rate at 10 nM (%); for inhibition at 0.5 µM: MV4-11, 500 nM, read-out: Inhibition Rate at 500 nM (%). Put shortly: (§8)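 Following overnight seeding, tumor cells received serial compound dilutions to final levels that included 10 nM and 500 nM. Viability was assessed by luminescence at the end of the specified exposure time. Cultures were kept at 37°C with 5% CO2.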

For the next assay, the system named is RPMI-8226. The assay is described as above. It is filed as cell-based. The conditions noted are these: Homo sapiens, 96 hours, Table I-3, EGFR inhibitors; for inhibition at 0.01 µM: 10 nM, read-out: Inhibition Rate at 10 nM (%); for inhibition at 0.5 µM: 500 nM, read-out: Inhibition Rate at 500 nM (%). Put shortly:
as §8

The next assay addresses T2, FAK (Homo sapiens, UniProt Q05397).
T2 construct: endogenous in cells; host or cells: A549
In words: Western blot, target protein degradation in A549 Cell. The conditions noted are these: substrate protein remaining %, treated at 500 nM and 50 nM, 24 hours. It is filed as cell-based. The method, then: as §1, §2, §3, §4, §5, §6, §7

In a further assay the test system is SW620. Briefly: Tumor cell proliferation inhibition (CellTiter-Meiluncell Luminescent Cell Viability Assay). It is filed as cell-based. The conditions noted are these: Homo sapiens, 96 hours; for inhibition at 0.01 µM: SW-620, 10 nM, read-out: Inhibition Rate at 10 nM (%); for inhibition at 0.5 µM: SW-620, 500 nM, read-out: Inhibition Rate at 500 nM (%). Put shortly: as §8

The next assay has as its system MM.1S. The assay is described as above. Type of assay: cell-based. The conditions noted are these: Homo sapiens, MM1.S, MM.1S, 96 hours, Table I-12, FAK inhibitors. The essentials: as §8
In another assay the test system is TMD8. Described as above. The conditions noted are these: Homo sapiens, 96 hours; for inhibition at 0.01 µM: 10 nM, read-out: Inhibition Rate at 10 nM (%); for inhibition at 0.5 µM: 500 nM, read-out: Inhibition Rate at 500 nM (%). It is filed as cell-based. The essentials: as §8
The subject of the next assay is CFPAC-1. The assay is described as above. Type of assay: cell-based. The conditions noted are these: Homo sapiens, 96 hours, Table I-10, BCR-ABL inhibitors. Put shortly:
as §8

[2] abbreviates: 10 nM, read-out: Inhibition Rate at 10 nM (%).
Setting [3] is: 500 nM, read-out: Inhibition Rate at 500 nM (%).

Like-named read-outs stand apart in the source and are kept apart here.

T1 sequence (Q96SW2 whole entry): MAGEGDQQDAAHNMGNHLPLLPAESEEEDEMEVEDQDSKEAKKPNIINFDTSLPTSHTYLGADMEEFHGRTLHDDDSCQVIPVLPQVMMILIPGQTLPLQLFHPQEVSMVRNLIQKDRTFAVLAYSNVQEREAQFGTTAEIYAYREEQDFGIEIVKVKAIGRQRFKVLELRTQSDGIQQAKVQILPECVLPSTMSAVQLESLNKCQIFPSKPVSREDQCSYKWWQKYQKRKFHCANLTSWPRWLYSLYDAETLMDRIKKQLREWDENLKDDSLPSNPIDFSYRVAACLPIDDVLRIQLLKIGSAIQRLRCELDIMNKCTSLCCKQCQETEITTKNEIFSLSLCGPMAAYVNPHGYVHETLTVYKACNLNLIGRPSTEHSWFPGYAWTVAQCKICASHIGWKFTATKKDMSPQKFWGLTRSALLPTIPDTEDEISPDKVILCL
T2 sequence (Q05397 whole entry): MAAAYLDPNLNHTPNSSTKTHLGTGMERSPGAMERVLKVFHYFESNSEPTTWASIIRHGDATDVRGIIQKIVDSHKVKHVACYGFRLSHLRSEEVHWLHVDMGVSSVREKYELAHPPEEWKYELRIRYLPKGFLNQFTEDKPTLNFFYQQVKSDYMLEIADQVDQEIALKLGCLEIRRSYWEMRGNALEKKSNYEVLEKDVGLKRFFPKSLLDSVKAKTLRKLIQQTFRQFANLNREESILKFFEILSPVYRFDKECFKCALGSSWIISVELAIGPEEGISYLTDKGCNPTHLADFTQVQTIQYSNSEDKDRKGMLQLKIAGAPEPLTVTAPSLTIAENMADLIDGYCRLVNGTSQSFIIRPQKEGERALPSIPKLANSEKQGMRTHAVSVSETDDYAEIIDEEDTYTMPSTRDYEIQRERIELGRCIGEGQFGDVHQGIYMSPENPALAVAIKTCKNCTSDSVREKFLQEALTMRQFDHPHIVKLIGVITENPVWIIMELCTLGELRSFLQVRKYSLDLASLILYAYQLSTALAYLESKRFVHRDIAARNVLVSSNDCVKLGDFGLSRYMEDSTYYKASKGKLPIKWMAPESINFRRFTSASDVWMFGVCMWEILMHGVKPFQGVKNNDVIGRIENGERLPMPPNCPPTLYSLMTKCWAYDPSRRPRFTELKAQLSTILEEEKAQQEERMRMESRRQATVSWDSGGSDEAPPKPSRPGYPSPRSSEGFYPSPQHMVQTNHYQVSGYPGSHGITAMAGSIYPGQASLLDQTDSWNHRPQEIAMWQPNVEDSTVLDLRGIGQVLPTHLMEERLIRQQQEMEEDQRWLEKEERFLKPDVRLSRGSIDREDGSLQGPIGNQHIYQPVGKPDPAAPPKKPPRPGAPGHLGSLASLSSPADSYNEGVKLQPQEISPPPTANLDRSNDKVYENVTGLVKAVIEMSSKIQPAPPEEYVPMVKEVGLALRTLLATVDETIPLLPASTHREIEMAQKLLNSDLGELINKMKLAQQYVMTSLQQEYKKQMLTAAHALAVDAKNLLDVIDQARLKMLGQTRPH

For `COc1cc(N2CCC(N(C)Cc3ccc4c(c3)C(=S)N(C3CCC(=O)NC3=O)C4)CC2)c(C)cc1Nc1ncc(Br)c(Nc2ccc3nccnc3c2P(C)(C)=O)n1` (stereo not shown) [GT-08761, 3-(6-(((1-(4-((5-bromo-4-((5-(dimethylphosphoryl)quinoxalin-6-yl)amino)pyrimidin-2-yl)amino)-5-methoxy-2-methylphenyl)piperidin-4-yl)(methyl)amino)methyl)-1-thioxoisoindolin-2-yl)piperidine-2,6-dione], the “Degradation of substrate protein EGFR” value in the assay on EGFR is on record as “A (0% ≤ substrate protein remaining % ≤ 80%)”. Moreover, the inhibition at 0.5 µM lay within 60 to 80% in [1]; 60 to 70% with MV-4-11 (Table I-3, EGFR inhibitors); 40 to 50% with RPMI-8226. In [1], the inhibition at 2 µM was in the range of 80 to 100%. Further, the inhibition at 0.01 µM in the assay with MV-4-11 (Table I-3, EGFR inhibitors) was in the range of 5 to 10%; with RPMI-8226 it was 20 to 30%.

Regarding `COc1cc(N2CCC(N3CCN(Cc4ccc5c(c4)C(=S)N(C4CCC(=O)NC4=O)C5)CC3)CC2)c(C)cc1Nc1ncc(Br)c(Nc2ccc3nccnc3c2P(C)(C)=O)n1` (stereo not shown) [GT-08762, 3-(6-((4-(1-(4-((5-bromo-4-((5-(dimethylphosphoryl)quinoxalin-6-yl)amino)pyrimidin-2-yl)amino)-5-methoxy-2-methylphenyl)piperidin-4-yl)piperazin-1-yl)methyl)-1-thioxoisoindolin-2-yl)piperidine-2,6-dione], the “Degradation of substrate protein EGFR” value with EGFR is on record as “A (0% ≤ substrate protein remaining % ≤ 80%)”. Besides, in [1], the inhibition at 0.5 µM fell in the range of 60 to 80% and the inhibition at 2 µM fell in the range of 80 to 100%. In addition, in the assay on MV-4-11 (Table I-3, EGFR inhibitors), the inhibition at 0.01 µM was 30 to 40% and the inhibition at 0.5 µM lay in the range of 80 to 100%. Moreover, in the assay with RPMI-8226, the inhibition at 0.01 µM fell in the range of 30 to 40% and the inhibition at 0.5 µM was 40 to 50%.

For `COC1CCN(c2nccc(Nc3cc4c(cn3)c(N3CCN(Cc5ccc6c(c5)C(=S)N(C5CCC(=O)NC5=O)C6)CC3)nn4C(C)C)n2)CC1` (stereo not shown) [GT-08763, 3-(6-((4-(1-isopropyl-6-((2-(4-methoxypiperidin-1-yl)pyrimidin-4-yl)amino)-1H-pyrazolo[4,3-c]pyridin-3-yl)piperazin-1-yl)methyl)-1-thioxoisoindolin-2-yl)piperidine-2,6-dione], the “Degradation of substrate protein EGFR” value with EGFR is on record as “A (0% ≤ substrate protein remaining % ≤ 80%)”. In addition, the inhibition at 0.5 µM was in the range of 30 to 40% in assay [1]; 50 to 60% in the assay with MV-4-11 (Table I-3, EGFR inhibitors); 50 to 60% in the assay on RPMI-8226. Also, the inhibition at 2 µM in [1] lay within 80 to 100%. The inhibition at 0.01 µM in the assay on MV-4-11 (Table I-3, EGFR inhibitors) is 30 to 40%; in the assay on RPMI-8226, 30 to 40%.

As to `CN(c1cccc(CNc2nc(Nc3ccc(N4CCN(Cc5cccc6c5CN(C5CCC(=O)NC5=O)C6=S)CC4)cc3)ncc2C(F)(F)F)c1)S(C)(=O)=O` (stereo not shown) [GT-08883, N-(3-(((2-((4-(4-((2-(2,6-dioxopiperidin-3-yl)-1-thioxoisoindolin-4-yl)methyl)piperazin-1-yl)phenyl)amino)-5-(trifluoromethyl)pyrimidin-4-yl)amino)methyl)phenyl) -N-methylmethanesulfonamide], at FAK, the “Degradation of substrate protein FAK” value was “A (0% ≤ substrate protein remaining % ≤ 80%)”. The inhibition at 0.5 µM in assay [1] is 40 to 53%; in the assay with MV-4-11 (Table I-12, FAK inhibitors), 70 to 80%; in the assay with SW620 (Table I-12, FAK inhibitors), 40 to 50%; in the assay on MM.1S (setting [3]) it was 40 to 50%. Moreover, in assay [1], the inhibition at 2 µM was in the range of 53 to 60%. Besides, the inhibition at 0.01 µM with MV-4-11 (Table I-12, FAK inhibitors) was 20 to 30%; in the assay with SW620 (Table I-12, FAK inhibitors) it was 30 to 40%; with MM.1S (setting [2]), 10 to 20%.

Regarding `CC(C)(C)c1cnc(CSc2cnc(NC(=O)C3CCN(Cc4ccc5c(c4)CN(C4CCC(=O)NC4=O)C5=S)CC3)s2)o1` (stereo not shown) [GT-09435, N-(5-(((5-(tert-butyl)oxazol-2-yl)methyl)thio)thiazol-2-yl)-1-((2-(2,6-dioxopiperidin-3-yl)-1-thioxoisoindolin-5-yl)methyl)piperidine-4-carboxamide], in assay [1], the inhibition at 0.5 µM lay within 40 to 53% and the inhibition at 2 µM was in the range of 80 to 100%. In the assay with TMD8 (Table I-7, CDK9 inhibitors), the inhibition at 0.01 µM is 0 to 5% and the inhibition at 0.5 µM was 70 to 80%.

Take `Nc1ncnc2c1c(-c1ccc(Oc3ccccc3)cc1)nn2C1CCN(Cc2ccc3c(c2)CN(C2CCC(=O)NC2=O)C3=S)CC1` (stereo not shown) [GT-09436, 3-(5-((4-(4-amino-3-(4-phenoxyphenyl)-1H-pyrazolo[3,4-d]pyrimidin-1-yl)piperidin-1-yl)methyl)-1-thioxoisoindolin-2-yl)piperidine-2,6-dione]: in assay [1], the inhibition at 0.5 µM lay within 40 to 53% and the inhibition at 2 µM is 80 to 100%. For the same compound, in the assay on SW620 (Table I-4, BTK inhibitors), the inhibition at 0.01 µM was 70 to 80% and the inhibition at 0.5 µM is 80 to 100%. In addition, in the assay with TMD8 (Table I-4, BTK inhibitors), the inhibition at 0.01 µM fell in the range of 15 to 20% and the inhibition at 0.5 µM fell in the range of 80 to 100%.

Turning to `Cc1ccc(C(=O)Nc2ccc(CN3CCN(Cc4ccc5c(c4)C(=S)N(C4CCC(=O)NC4=O)C5)CC3)c(C(F)(F)F)c2)cc1C#Cc1cnc2cccnn12` (stereo not shown) [GT-09439, N-(4-((4-((2-(2,6-dioxopiperidin-3-yl)-3-thioxoisoindolin-5-yl)methyl)piperazin-1-yl)methyl)-3-(trifluoromethyl)phenyl)-3-(imidazo[1,2-b]pyridazin-3-ylethynyl)-4-methylbenzamide], the inhibition at 0.01 µM in the assay with CFPAC-1 (setting [2]) was 5 to 10%. For the same compound, the inhibition at 0.5 µM in the assay on CFPAC-1 (setting [3]) was 60 to 70%.

As to `C=CC(=O)Nc1cc(Nc2nccc(-c3cn(C)c4ccccc34)n2)c(OC)cc1N(C)CCN(C)C` [Osimertinib, reference compound], the “Degradation of substrate protein EGFR” value in the assay on EGFR is “No degradation”.

Take `C=CC(=O)N1CCC[C@@H](n2nc(-c3ccc(Oc4ccccc4)cc3)c3c(N)ncnc32)C1` [ibrutinib, Ibrutinib, reference compound]: the inhibition at 0.5 µM in [1] was 0 to 10%; in the assay on SW620 (Table I-4, BTK inhibitors), 0 to 5%; in the assay with TMD8 (Table I-4, BTK inhibitors) it was 30 to 40%. Also, in [1], the inhibition at 2 µM lay within 10 to 20%. For the same compound, the inhibition at 0.01 µM in the assay on SW620 (Table I-4, BTK inhibitors) is -5 to 0%; with TMD8 (Table I-4, BTK inhibitors) it was -5 to 0%.

One may read the inhibition as the drop in the measured response relative to a control, in per cent.
